Measured values: patent publication US20200087625A1, “METHODS FOR ISOLATING, EXPANDING AND ADMINISTERING CANCER SPECIFIC CD8+ T CELLS” (priority 2017, published 2020)

What was measured:
4T1 cells = assay: Ex vivo tumor-specific cytotoxicity study; type: cell-based, BALB/c mice; conditions: effector to target cell ratio 16:1; vs vehicle
Method: FIGS. 23A-23G. Systemic administration of […] induces tumor-specific CD8^+ T cells. (A) Protocol of IV metastasis model. (B) BALB/c mice (n=B-15/group) were i.v. injected with 4T1 cells (2×10^4) on day 0.1V270 (2, 20, or 200 μg/injection) was i.p. administered on days −1, 7, 10, and 14. The numbers of lung nodules were counted on day 21. (C) 200 μg/injection 1V270 was i.p. administered on days −1 or 0 followed by days 7, 10, and 14 where indicated. The numbers of lung nodules were counted on day 21. […] Intracellular granzyme B (D) and IFNγ (E) were analyzed by flow cytometry. […] The percent specific killing was calculated. Data were analyzed by two-way ANOVA using a Bonferroni post hoc test comparing treatment groups against vehicle group. *P<0.05. […]
Tumor-specific cytotoxicity was examined using 4T1 cells as target cells and BALB/3T3 cells as irrelevant cells. […] The frequencies of 4T1 (CFSE high) and BALB/3T3 (CFSE low) cells were determined by flow cytometry, and the percent specific killing was calculated. […]
To examine the role of CD8^+ T cells after systemic 1V270 treatment, mediastinal lymph node (mLN) cells, splenocytes, and lung tissues were analyzed in the IV metastasis model on day 21 (FIGS. 23D-2G). Activation of CD8^+ T cells was assessed by intracellular staining for granzyme B and interferon γ (IFNγ). […]

CD8+ T cells = assay: TCR repertoire analysis of CD8+ T cells from TILs and spleens; type: in vivo, BALB/c mice

Structure (SMILES): CCCCCCCCC=CCCCCCCCC(=O)OCC(COP(=O)(O)OCCNC(=O)c1ccc(Cn2c(=O)[nH]c3c(N)nc(OCCOC)nc32)cc1)OC(=O)CCCCCCCC=CCCCCCCCC (centres unmarked) [1V270]
- tumor-specific cytotoxicity of CD8+ T cells (4T1 cells): significantly higher tumor-specific cytotoxicity
- BUB overlap index between TILs and splenocytes (CD8+ T cells; 1V270-treated tumor-exposed vs non-tumor exposed mice): significantly higher BUB indices
- number of shared clones in TILs (CD8+ T cells; 1V270 treated tumor-exposed group vs no-tumor exposed group): eight-fold higher
- TCRα clonotypes shared by 3 or more individuals (CD8+ T cells; non-tumor group): 5
- clonality of CD8+ T cells (CD8+ T cells; secondarily challenged tumors): increased clonality of CD8^+ T cells
- TCRα clonotypes shared by 3 or more individuals (CD8+ T cells; tumor-exposed group): 31
- TCRβ clonotypes shared by 3 or more individuals (CD8+ T cells; tumor-exposed group): 11
- frequency of shared clones (CD8+ T cells; tumor-exposed vs non-tumor exposed mice): significantly higher in tumor-exposed mice than in non-tumor exposed mice
